Measurements published in US20250032425A1, “FIRST IN CLASS USE OF ESTROGEN RECEPTOR BETA AGONISTS IN TREATING ANGELMAN SYNDROME AND RELEVANT AUTISM SPECTRUM DISORDERS” (BROWN UNIVERSITY, priority 2023, published 2025).
“Also recorded” adds a separate entry of the source.

What was measured:
[1] = test system: Angelman syndrome (AS) mice; assay: Accelerating Rotarod test in AS mice; assay type: in vivo, mouse; details: 10 mg/kg daily IP, days 1-3, vs AS vehicle
Method: Animal handling and experimental use strictly followed NIH guidelines and protocols approved by the local Institutional Animal Care and Use Committee (IACUC) of Brown University. In all experiments, Mice were age and gender-matched. Multiple liters were used for all experiments. Weaned mice, housed in groups of two to four per cage, were maintained on a 12-h light/dark cycle with food and water ad libitum.
ESRβ agonist AC-186 treatment in vivo. 10 mg/kg AC-186 was daily IP delivered after dissolved at high concentration (30 mg/ml) in DMSO and further diluted in 20% PEG300. Vehicle groups received the same volume and concentration of diluted DMSO in 20% PEG300. Treatment started at P13 and continued until mice were sacrificed at P42.
This involved conducting two trials per day for three consecutive days, with a 20-minute rest interval between trials. During each trial, mice were placed on a rod that accelerated from 4 to 40 RPM over a five-minute period, and the time until each mouse fell was recorded. The average duration before falling was tracked and graphed across the three-day span.

[2] = test system: AS iOPCs (UBE3A truncation mutation); assay: Proliferation of AS patient-derived iOPCs (EdU, Ki67); assay type: cell-based, human; details: 10 μM, 24 hours, vs vehicle
Excerpt: FIGS. 25A-25I depict the role of UBE3A via ESR-β signaling on OPC proliferation and oligodendrocyte differentiation. FIG. 25A: qPCR to evaluate the differentiation and maturation for myelination of iOPCs after persistent UBE3A knockdown, by measuring mRNA transcripts of UBE3A and myelination markers MBP and PLP1 in iOPCs treated with siNC or siUBE3A and differentiated in vitro. MBP and PLP1 mRNA expression decreased in iOLs treated with siUBE3A. n=3 independent experiments. FIG. 25B: In vitro myelination assays analyzed the effect of persistent UBE3A knockdown on iOPCs differentiation and maturation in nano-fiber-based cultures, with immunofluorescent staining of MBP (magenta) and DAPI (blue) and imaging of nano-fibers (grey). Quantification by the area (left graph) and density (right graph) of MBP fluorescent signals (normalized to siNC=1.0). MBP area and intensity decreased in cells treated with siUBE3A. n=3 experiments. Scale bar: 25 μm. […] Protein levels of ESR-β in UBE3A-deficient iOPCs and subsequently differentiated iOLs were quantified, normalized against the loading control GAPDH, and expressed relative to the iOPC+siNC control condition (set at 1.0). […] Levels of Ki67 and Myelin Associated Glycoprotein (MAG) were measured in UBE3A-deficient iOPCs and iOLs differentiated from them, normalized against GAPDH, and compared to the iOPC+siNC condition. n=4 experiments. […]

[3] = rodents and dogs; cited from earlier work

With Oc1ccc(C2(c3ccccc3F)CCC(F)(F)CC2)cc1 [AC-186] the “Rotarod time to fall” value [1] was “significant improvements; also recorded: increased”, the “ratio of EdU positive iOPCs (proliferation)” value ([2]; AS iOPCs) was “significantly enhanced the proliferation; also recorded: increased” and the Ki67 expression ([2]; AS-derived OPCs) was “increased Ki67 expression”. The bioavailability [3] was “satisfactory bioavailability; also recorded: effective bioavailability”.
